Experimental data from patent US20130172387A1, “METHOD AND COMPOSITION FOR PROLONGING ANALGESIC EFFECT OF LOCAL ANESTHETIC” (priority 2011, published 2013).
Values joined by “and” are separate entries in the source; they are usually repeats but may differ in a detail not shown here. Identical values can stand only once.

Tests used:
[1] = tested on: cutaneous trunci muscle reflex (CTMR); assay: Noxious pinprick test of the cutaneous trunci muscle reflex after subcutaneous injection; type: in vivo; conditions: rat; for time of complete recovery (CRT): s.c. 0.6 ml, mean ± SE, n=8
Method: Subcutaneous Injection The animal experimental protocol was approved by the Animal Committee of Mackay Memorial Hospital in Taipei, Taiwan. Male Sprague-Dawley rats were purchased from BioLasco (Taipei, Taiwan) and kept in an air-conditioned animal shelter at room temperature of 22° C. to 24° C. with controlled level of humidity (40% to 50%) in a 12-hour light-dark cycle. […] The rats were randomly assigned to treatments with a size of 8 rats per group. All rats were briefly anesthetized by inhalation of 2% isoflurane (Abbott Laboratories, North Chicago, Ill.). The back of each rat was carefully shaved with a razor and was left with no injuries. After the induction of inhalation anesthesia, the drugs were injected subcutaneously in the thoracolumbar region. The injections caused a circular elevation of the skin, creating a wheal of approximately 2 cm in diameter. This wheal was marked within a minute after the injection.
Neurobehavioral Examination Before the experiments were conducted, the animals were handled daily for up to 14 days to familiarize them with the behavioral investigator, the experimental environment, and the specific experimental protocols. A noxious pinprick test was used to measure the analgesic effect of the cutaneous trunci muscle reflex (CTMR), which is characterized by reflex movements of the skin over the back produced by twitches of the lateral thoracispinal muscles in response to local dorsal cutaneous stimulations. The von Frey filament (26.0 g) was affixed to an 18-gauge needle to standardize the stimulus intensity and to test the neurobehavioral examination. Six pinpricks were applied in the marked areas every 15 minutes after each drug administration until the rats were fully recovered from the block. Six pinpricks per test were sufficient enough to obtain reproducible results in rats among different study groups, while avoiding injury of the skin during repeated testing. […] The total absence of CTMR response was defined as a complete blockade with 100% of maximum possible effect (MPE). Three CTMR pinprick responses indicated a 50% of MPE, while 0% of observed MPE would show the presence of all six CTMR pinprick responses. The complete recovery time (CRT) is defined as the time period when the presence of all six pinprick responses returned with 0% of MPE. All CTMR responses observed in rats were under stable vital signs. To determine skin irritation (such as necrosis, swelling and inflammation), assessment in any macroscopic changes of the skin color and texture was further studied. Systemic side effects such as sedation, agitation, and respiratory distress were also evaluated. The observer was not informed about the drugs used.
Statistical Analysis The statistical difference between the treatment groups was tested by using Mann-Whitney Rank Sum Test to evaluate the analgesic degree of MPE. Microcal Origin version 7 (Microcal Software, Northampton, Mass.) and SigmaStat (Systat Software, Inc., Chicago, Ill.) were used to calculate the values of MPE, creating figures and analyzing statistics. A p value of less than 0.05 was defined significant. All data are presented as mean±SE.

[2] = tested on: skin; conditions: rat, in vivo, sc
Method: Neurobehavioral Examination Before the experiments were conducted, the animals were handled daily for up to 14 days to familiarize them with the behavioral investigator, the experimental environment, and the specific experimental protocols. A noxious pinprick test was used to measure the analgesic effect of the cutaneous trunci muscle reflex (CTMR), which is characterized by reflex movements of the skin over the back produced by twitches of the lateral thoracispinal muscles in response to local dorsal cutaneous stimulations. […] Three CTMR pinprick responses indicated a 50% of MPE, while 0% of observed MPE would show the presence of all six CTMR pinprick responses. The complete recovery time (CRT) is defined as the time period when the presence of all six pinprick responses returned with 0% of MPE. […] To determine skin irritation (such as necrosis, swelling and inflammation), assessment in any macroscopic changes of the skin color and texture was further studied. Systemic side effects such as sedation, agitation, and respiratory distress were also evaluated. The observer was not informed about the drugs used.

[3] = tested on: subcutaneous tissue; conditions: rat, in vivo, sc
Method: Histology To determine the toxicity of the present composition to the subcutaneous tissue, skin was excised from the injected area of anesthetized rats two days later. The skin cross-section samples were fixed in 4% paraformaldehyde overnight and stained with hematoxylin and eosin.
Tissue inflammation was evaluated by the level of lymphocytic infiltrations in the cinnamaldehyde-injected subcutaneous layer of rats' cross-sectioned skin at 48 h.

[4] = cinnamaldehyde 0.5% alone, or given 10 min before lidocaine 0.5% / bupivacaine 0.0625%
[5] = cinnamaldehyde 1% alone, or given 10 min before lidocaine 0.5% / bupivacaine 0.0625%
[6] = cinnamaldehyde 2% alone, or given 10 min before lidocaine 0.5% / bupivacaine 0.0625%

| Structure (SMILES) | time of complete recovery (CRT) [1, 4] | time of complete recovery (CRT) [1, 5] | time of complete recovery (CRT) [1, 6] | analgesic effect, dose dependence ([1]; s.c., cinnamaldehyde alone at 0.5%, 1% and 2%) | skin irritation [2] | lymphocytic infiltration (tissue inflammation) in subcutaneous layer [3] | duration of complete nociceptive block to pinpricks ([1]; s.c., 2% cinnamaldehyde followed 10 min later by 0.5% lidocaine) | analgesic effect, dose dependence ([1]; s.c., cinnamaldehyde 0.5%, 1%, 2% followed by 0.5% lidocaine) | time of complete recovery (CRT) ([1]; cinnamaldehyde 0% (vehicle): lidocaine 0.5% or bupivacaine 0.0625% alone) | duration of complete nociceptive block ([1]; s.c., bupivacaine 0.0625% alone) | complete nociceptive block to pinpricks ([1]; s.c., cinnamaldehyde 0.5%, 1%, 2% followed 10 min later by bupivacaine 0.0625%) |
| --- | --- | --- | --- | --- | --- | --- | --- | --- | --- | --- | --- |
| O=CC=Cc1ccccc1 [Cinnamaldehyde, cinnamaldehyde] | 43.13 ± 5.97 min and 43.13 min | 63.75 ± 4.70 min and 63.75 min | 95.63 ± 3.95 min and 95.63 min | dose-dependent analgesic effect | neither obvious change of skin color nor injury was observed | More lymphocytic infiltrations |  |  |  |  |  |
| CCN(CC)CC(=O)Nc1c(C)cccc1C [Lidocaine, 2-(diethylamino)-N-(2,6-dimethylphenyl)acetamide] | 65.63 ± 2.74 min and 65.63 min | 106.88 ± 3.40 min and 106.88 min | 157.50 ± 5.67 min and 157.50 min |  |  |  | about 15 minutes | Dose dependent analgesic effect |  |  |  |
| CCCCN1CCCCC1C(=O)Nc1c(C)cccc1C (centres unmarked) [Bupivacaine, 1-butyl-N-(2,6-dimethylphenyl)piperidine-2-carboxamide] | 78.75 min | 116.25 ± 4.70 min and 116.25 min | 159.38 ± 6.30 min and 159.38 min |  |  |  |  |  | 91.88 ± 4.43 min and 91.88 min | approximately 45 minutes | increased |
